Consider 44 compounds from US5214046A, “Substituted aminoalkoxybenzene anti-fungicidal compositions and use” (Hoffmann-La Roche Inc., priority 1989, dated 1993).

Where a name gives a salt, the structure may show the parent alone. Read-outs that look alike come from different tables or passages of the source.

Test [1] deals with 2,3-epoxysqualene-lanosterol cyclase (Candida albicans, UniProt Q04782). As to the kind of experiment: Inhibition of 2,3-epoxysqualene-lanosterol cyclase from Candida albicans (cell-free extract, 14C-squalene epoxide). The test is classed as biochemical.
The next test deals with Candida albicans. As to the kind of experiment: Agar dilution method, MIC alone and in combination with sterol biosynthesis inhibitors, FIC. The format is cell-based. As to conditions: for MIC: Candida albicans, 48 h, alone, 37° C., 2 days. A general note: In agar dilution the substance is mixed into plates at graded concentrations.
The mark [2] stands for this setting: C. albicans cell-free extract, pH 6.9, 30°, 1 hour, read-out: IC50 (converted).

2,3-epoxysqualene-lanosterol cyclase, sequence (Q04782 whole entry): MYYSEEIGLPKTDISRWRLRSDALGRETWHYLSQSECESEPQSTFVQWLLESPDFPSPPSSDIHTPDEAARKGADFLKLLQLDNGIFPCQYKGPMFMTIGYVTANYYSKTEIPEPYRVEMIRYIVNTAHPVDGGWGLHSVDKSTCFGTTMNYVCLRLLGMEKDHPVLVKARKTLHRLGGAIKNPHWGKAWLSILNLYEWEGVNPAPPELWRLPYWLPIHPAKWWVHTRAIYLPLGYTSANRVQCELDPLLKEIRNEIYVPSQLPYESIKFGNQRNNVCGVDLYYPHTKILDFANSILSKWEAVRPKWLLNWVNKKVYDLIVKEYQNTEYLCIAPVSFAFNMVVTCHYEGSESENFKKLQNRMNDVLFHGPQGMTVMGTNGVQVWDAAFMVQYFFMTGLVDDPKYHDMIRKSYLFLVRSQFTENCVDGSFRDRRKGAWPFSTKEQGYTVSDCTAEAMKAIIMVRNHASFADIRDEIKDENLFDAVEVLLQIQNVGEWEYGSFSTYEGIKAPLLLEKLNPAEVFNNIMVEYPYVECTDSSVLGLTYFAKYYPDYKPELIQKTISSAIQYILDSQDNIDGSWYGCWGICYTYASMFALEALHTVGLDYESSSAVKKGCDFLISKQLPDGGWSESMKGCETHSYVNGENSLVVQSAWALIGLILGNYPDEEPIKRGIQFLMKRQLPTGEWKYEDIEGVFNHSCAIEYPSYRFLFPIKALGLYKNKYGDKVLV

Take `CN(C)CCCCCOc1ccc(C(=O)c2ccccc2)cc1` [Compound 2, 4-[(5-(dimethylamino)pentyl)oxy]benzophenone]: the IC50 (as a rule, the concentration that gives 50% inhibition) in test [1] (setting [2]) was 514 nM.

For `CN(C)CCCCCCOc1ccc(C(=O)c2ccccc2)cc1` [Compound 3, 4-[(6-dimethylamino)hexyl)oxy]benzophenone hydrochloride], the IC50 in test [1] (setting [2]) was 461 nM. As to `CCN(CC)CCCCCCOc1cccc(C(=O)CCc2ccccc2)c1` [Compound 4, 3'-[[6-(diethylamino)hexyl]oxy]-3-phenypropiophenone], the IC50 in test [1] (setting [2]) was 1570 nM. Turning to `CN(C)CCCCCCOc1ccc(C(=O)/C=C/c2ccccc2)cc1` [Compound 5, (E)-4'-[[6-(dimethylamino)hexyl]oxy]-3-phenylacrylophenone], the IC50 in test [1] (setting [2]) is 1710 nM.

Take `CN(C)CCCCCCOc1ccc(C(=O)Cc2ccccc2)cc1` [Compound 6]: the IC50 in test [1] (setting [2]) is 191 nM.

On to `CCN(CC)CCCCCCOc1ccc(C(=O)CCc2ccccc2)cc1` [Compound 7, 4'-[[6-(diethylamino)hexyl]oxy]-3-phenylpropiophenone], for which the IC50 in test [1] (setting [2]) is 708 nM.

Regarding `CN(C)CCCCCCOc1ccc(C(=O)CCc2ccccc2)cc1` [Compound 8, 4'-[[6-(dimethylamino)hexyl]oxy]-3-phenylpropiophenone], the IC50 in test [1] (setting [2]) was 990 nM. On to `CCN(CC)CCCCCCOc1ccc(C(=O)c2ccccc2)cc1` [Compound 9, 4'-[[6-(diethylamino)hexyl]oxy]benzophenone], for which the half-inhibitory concentration (IC50) in test [1] (setting [2]) is 1020 nM. On the same count and under the same terms, the same measure for `CN(C)CCCCCCOc1cccc(C(=O)/C=C/c2ccccc2)c1` [Compound 10, (E)-3'-[[6-(dimethylamino)hexyl]oxy]-3-phenylacrylophenone]: 6540 nM; for `CN(C)CCCCCCOc1cccc(C(=O)CCc2ccccc2)c1` [Compound 11]: 2830 nM.

For `CN(C)CCCCCCOc1ccc(C(=O)c2ccc(F)cc2)cc1` [Compound 12, 4-[[6-(dimethylamino)hexyl]oxy]-4'-fluorobenzophenone], the IC50 in test [1] (setting [2]) was 524 nM. Same read-out and setting: then `CN(C)CCCCCCOc1cccc(C(=O)c2ccccc2)c1` [Compound 13, 3-[(6-(dimethylamino)hexyl)oxy]benzophenone], with 6150 nM. The same measure, in the same setting: the same measure for `CCN(CC)CCCCCCOc1ccc(C(=O)C#Cc2ccccc2)cc1` [Compound 14, 4'-[[6-(diethylamino)hexyl]oxy]-3-phenylpropiolophenone]: 8210 nM; for `CN(C)CCCCCCOc1ccc(C(=O)c2c(F)c(F)c(F)c(F)c2F)cc1` [Compound 15, 4'-[[6-(dimethylamino)hexyl]oxy]-2,3,4,5,6-pentafluorobenzophenone]: 2140 nM; for `CCCN(CCC)CCCCCCOc1ccc(C(=O)c2ccccc2)cc1` [Compound 16, 4-[[6-(dipropylamino)hexyl]oxy]benzophenone]: 2410 nM. The compound `O=C(c1ccccc1)c1ccc(OCCCCCCN2CCC2)cc1` [Compound 17, 4-[(6-(azetidinyl)hexyl)oxy]benzophenone] had an IC50 in test [1] of 1780 nM. As to `CN(C)CCCCCCCOc1ccc(C(=O)c2ccccc2)cc1` [Compound 18, 4-[[7-(dimethylamino)heptyl]oxy]benzophenone], in test [1] (setting [2]), the IC50 was 353 nM.

As to `CN(C)CCCCCCCCOc1ccc(C(=O)c2ccccc2)cc1` [Compound 19], the IC50 in test [1] (setting [2]) is 1190 nM. On the same count and under the same terms, then `CN(C)CCCCCCCCCOc1ccc(C(=O)c2ccccc2)cc1` [Compound 20, 4-[[9-(dimethylamino)nonyl]oxy]benzophenone], with 4350 nM. Take `CN(C)CCCCCCCCCCOc1ccc(C(=O)c2ccccc2)cc1` [Compound 21, 4-[[10-(dimethylamino)decyl]oxy]benzophenone]: the IC50 in test [1] (setting [2]) was 5240 nM. Still for that read-out and setting: the same measure for `O=C(c1ccccc1)c1ccc(OCCCCCCN2CCCC2)cc1` [Compound 22, 4-[(6-(pyrrolidino)hexyl)oxy]benzophenone]: 967 nM.

On to `CN(C)CCCCCCOc1ccc(CC(=O)c2ccccc2)cc1` [Compound 23, 2-[4-[[6-(dimethylamino)hexyl]oxy]phenyl]acetophenone], for which the IC50 in test [1] (setting [2]) is 560 nM. Still for that read-out and setting: then `CNCCCCCCOc1ccc(C(=O)c2ccccc2)cc1` [Compound 24, 4-[[6-(methylamino)hexyl]oxy]benzophenone], with 963 nM; and `Cc1cc(C(=O)c2ccccc2)ccc1OCCCCCCN(C)C` [Compound 25, 4-[[6-(dimethylamino)hexyl]oxy]-3-methylbenzophenone], with 560 nM. The same measure, in the same setting: the same measure for `Cc1cccc(C(=O)c2ccc(OCCCCCCN(C)C)cc2)c1C` [Compound 26, 4-[[6-(dimethylamino)hexyl]oxy]-2',3'-dimethylbenzophenone]: 1190 nM. Same read-out and setting: then `CN(C)CCCCCCOc1ccc(C(=O)c2ccc(Cl)cc2Cl)cc1` [Compound 27, 4-[[6-(dimethylamino)hexyl]oxy]-2',4'-dichlorobenzophenone], with 659 nM; and `CN(C)CCCCCCOc1ccc(C(=O)c2cc(Cl)cc(Cl)c2)cc1` [Compound 28, 4-[[6-(dimethylamino)hexyl]oxy]-3',5'-dichlorobenzophenone], with 3800 nM; and `CN(C)CCCCCCOc1ccc(C(=O)c2ccc([N+](=O)[O-])cc2)cc1` [Compound 29, 4-[[6-(dimethylamino)hexyl]oxy]-4'-nitrobenzophenone], with 756 nM. Regarding `CN(C)CCCCCCOc1ccc(C(=O)c2ccc(Cl)cc2Cl)cc1Cl` [Compound 30, 4-[[6-(dimethylamino)hexyl]oxy]-2',3,4'-trichlorobenzophenone], the IC50 in test [1] (setting [2]) was 233 nM. On to `C=CCN(C)CCCCCCOc1ccc(C(=O)Cc2ccccc2)cc1` [Compound 32, 4-[[6-(allylmethylamino)hexyl]oxy]-2-phenylacetophenone], for which half-maximal inhibition in test [1] (IC50) was put at 95.8 nM. The same measure, in the same setting: then `C=CCN(C)CCCCCCOc1ccc(C(=O)c2ccc(F)cc2)cc1` [Compound 33, 4-[[6-(allylmethylamino)hexyl]oxy]-4'-fluorobenzophenone], with 83.9 nM. Still for that read-out and setting: the same measure for `C=CCN(C)CCCCCCOc1ccc(C(=O)c2ccccc2)cc1C` [Compound 34, 4-[[6-(allylmethylamino)hexyl]oxy]-3-methylbenzophenone]: 87.5 nM; for `C=CCN(C)CCCCCCOc1ccc(C(=O)c2cccc(C)c2C)cc1` [Compound 35, 4-[[6-(allylmethylamino)hexyl]oxy]-2',3'-dimethylbenzophenone]: 224 nM; for `C=CCN(C)CCCCCCOc1ccc(C(=O)c2ccc(Cl)cc2Cl)cc1` [Compound 36, 4-[[6-(allylmethylamino)hexyl]oxy]-2',4'-dichlorobenzophenone]: 131 nM. Same read-out and setting: then `C=CCN(C)CCCCCCOc1ccc(C(=O)c2cc(Cl)cc(Cl)c2)cc1` [Compound 37, 4-[[6-(allylmethylamino)hexyl]oxy]-3',5'-dichlorobenzophenone], with 809 nM; and `C=CCN(C)CCCCCCOc1ccc(C(=O)c2ccc([N+](=O)[O-])cc2)cc1` [Compound 38, 4-[[6-(allylmethylamino)hexyl]oxy]-4'-nitrobenzophenone], with 101 nM; and `C=CCN(C)CCCCCCOc1ccc(C(=O)c2ccccc2)cc1Cl` [Compound 39, 4-[[6-(allylmethylamino)hexyl]oxy]-3-chlorobenzophenone], with 64.8 nM.

In test [1], `C=CCN(C)CCCCCCOc1ccc(C(=O)c2ccc(Cl)cc2Cl)cc1Cl` [Compound 40, 4-[[6-(allylmethylamino)hexyl]oxy]-2',3,4'-trichlorobenzophenone] showed an IC50 of 57.2 nM. Still for that read-out and setting: the same measure for `C=CCN(C)C/C=C/COc1ccc(C(=O)c2ccccc2)cc1` [Compound 41, trans-4-[[4-(allylmethylamino)-2-butenyl]oxy]benzophenone]: 62.2 nM; for `C=CCN(C)C/C=C/COc1ccc(C(=O)c2ccc(Cl)cc2Cl)cc1` [Compound 42, trans-4-[[4-(allylmethylamino)-2-butenyl]oxy]-2',4'-dichlorobenzophenone]: 17.9 nM. For `CN(C)C/C=C/COc1ccc(C(=O)c2ccccc2)cc1` [Compound 43, trans-4-[[4-(dimethylamino)-2-butenyl]oxy]benzophenone], in test [1] (setting [2]), the IC50 was 745 nM. In the case of `CN(C)C/C=C/COc1ccc(C(=O)c2ccc(Cl)cc2Cl)cc1` [Compound 44, trans-4-[[4-(dimethylamino)-2-butenyl]oxy]-2',4'-dichlorobenzophenone], the IC50 in test [1] (setting [2]) was 178 nM. For `CC(=O)N1CCN(c2ccc(OCC3COC(Cn4ccnc4)(c4ccc(Cl)cc4Cl)O3)cc2)CC1` (centres unmarked) [Ketoconazole, reference compound], the MIC in combination in the test with Candida albicans (C. albicans B4, Compound 6 + Ketoconazole in combination) was determined as 0.155 µg/mL; with Candida albicans (C. albicans B5, Compound 6 + Ketoconazole in combination), 0.31 µg/mL; with Candida albicans (C. albicans H12, Compound 6 + Ketoconazole in combination), 0.155 µg/mL; in the test on Candida albicans (C. albicans H29, Compound 6 + Ketoconazole in combination) it was 0.03 µg/mL; with Candida albicans (C. albicans H42, Compound 6 + Ketoconazole in combination) it was 0.155 µg/mL. Further, the MIC (commonly the smallest concentration in the dilution series that meets the test's criterion for growth inhibition) was determined as 5 µg/mL in the test with Candida albicans (C. albicans B4); 5 µg/mL in the test with Candida albicans (C. albicans B5); 5 µg/mL in the test with Candida albicans (C. albicans H12); 0.25 µg/mL with Candida albicans (C. albicans H29); 10 µg/mL with Candida albicans (C. albicans H42). `CN(C/C=C/C#CC(C)(C)C)Cc1cccc2ccccc12` [Terbinafin, reference compound]: the MIC in combination amounted to 0.55 µg/mL in the test on Candida albicans (C. albicans B4, Compound 6 + Terbinafin in combination); 0.75 µg/mL in the test with Candida albicans (C. albicans B5, Compound 6 + Terbinafin in combination); 6.25 µg/mL in the test on Candida albicans (C. albicans H12, Compound 6 + Terbinafin in combination); 1.55 µg/mL in the test on Candida albicans (C. albicans H29, Compound 6 + Terbinafin in combination); 6.25 µg/mL with Candida albicans (C. albicans H42, Compound 6 + Terbinafin in combination). For the same compound, the MIC turned out to be 12.5 µg/mL in the test on Candida albicans (C. albicans B4); 6.25 µg/mL in the test on Candida albicans (C. albicans B5); 100 µg/mL in the test on Candida albicans (C. albicans H12); 6.25 µg/mL in the test with Candida albicans (C. albicans H29); 100 µg/mL in the test on Candida albicans (C. albicans H42).
